Results on 24 compounds are retold here after patent EP0796243B1, “DIAMINOCYCLOBUTENE-3,4-DIONES” (AMERICAN HOME PRODUCTS CORPORATION, priority 1994, dated 1996).

The subject of this assay is Isolated Rat Bladder Strips. Briefly: Inhibition of contractions in isolated rat bladder strips (KCl-enhanced contractile activity). More on the design: species or system Sprague-Dawley rats. Particulars: 0.5 h, concentration required to elicit 50% inhibition of pre-drug contractile activity, additional 15 mM KCl, 30 minute challenge per concentration, value ± spread as printed. An excerpt: Sprague-Dawley rats (150-200 g) are rendered unconscious by CO2 asphyxiation and then euthanized by cervical dislocation. The bladder is removed into warm (37 deg.C) physiological salt solution (PSS) of the following composition (mM): NaCl, 118.4; KCl, 4.7; CaCl2, 2.5; […]; NaHCO3, 24.9; KH2PO4, 1.2; glucose, 11.1; EDTA, 0.023; gassed with […]; pH 7.4. The bladder is opened and then cut into strips 1-2 mm in width and 7-10 mm in length. The strips are subsequently suspended in a 10 mL tissue bath under an initial resting tension of 1.5 g. The strips are held in place by two surgical clips one of which is attached to a fixed hook while the other is attached to an isometric force transducer. […] The carbachol is then washed out and the tissue allowed to relax to its resting level of activity. Following a further 30 min period of recovery an additional 15 mM KCl are introduced into the tissue bath. This increase in KCI concentration results in a large increase in the amplitude of spontaneous contractions (and initiation of contractions in previously quiescent strips) superimposed upon a small increase in basal tone. Following stabilization of this enhanced level of contractile activity, incremental increases in the concentration of test compound or vehicle are introduced into the tissue bath. Contractile activity is measured for each compound or vehicle concentration during the last minute of a 30 minute challenge.
The isometric force developed by the bladder strips is measured using a […] to elicit 50% inhibition of pre-drug contractile activity (IC50 concentration) is calculated from this concentration-response curve.

On to `CC(=O)N(c1ccc(C#N)cc1)c1c(NC2CC3CCC2C3)c(=O)c1=O` (racemic) [Example 17, N-(endo)-[2-(Bicyclo[2,2,1]hept-2-ylamino)-3,4-dioxo-cyclobut-1-enyl]-N-(4-cyano-phenyl)-acetamide], for which the IC50 (in general, the concentration that gives 50% inhibition) came out at 1840 ± 360 nM. Take `CC(=O)N(c1ccncc1)c1c(NC2CC3CCC2C3)c(=O)c1=O` (racemic) [Example 21, (endo)-N-[2-(Bicyclo[2,2,1]hept-2-ylamino)-3,4-dioxo-cyclobut-1-enyl]-N-(pyridin-4-yl)-acetamide]: the IC50 was 10600 nM. The result for `CCC(=O)N(c1ccc(C#N)cc1)c1c(NC(C)C(C)(C)C)c(=O)c1=O` (stereo not drawn) [Example 1, N-(4-Cyano-phenyl)-N-[3,4-dioxo-2-(1,2,2-trimethyl-propylamino)-cyclobut-1-enyl]-propionamide] reads 500 nM; that for `CC(Nc1c(N(C(=O)c2ccccc2)c2ccc(C#N)cc2)c(=O)c1=O)C(C)(C)C` (stereo not drawn) [Example 2, N-(4-Cyano-phenyl)-N-[3,4-dioxo-2-(1,2,2-trimethyl-propylamino)-cyclobut-1-enyl]-benzamide], 290 ± 40 nM. `CCCCCC(=O)N(c1ccc(C#N)cc1)c1c(NC(C)C(C)(C)C)c(=O)c1=O` (stereo not drawn) [Example 5, Hexanoic acid (4-cyano-phenyl)-[3,4-dioxo-2-(1,2,2-trimethyl-propylamino)-cyclobut-1-enyl]-amide]: the IC50 worked out at 350 ± 100 nM. The result for `CC(C)C(=O)N(c1ccc(C#N)cc1)c1c(NC(C)C(C)(C)C)c(=O)c1=O` (stereo not drawn) [Example 6, N-(4-Cyano-phenyl)-N-[3,4-dioxo-2-(1,2,2-trimethyl-propylamino)-cyclobut-1-enyl]-isobutyramide] reads 570 ± 200 nM. The result for `CC(Nc1c(N(C(=O)C=Cc2ccccc2)c2ccc(C#N)cc2)c(=O)c1=O)C(C)(C)C` (stereo not drawn) [Example 7, N-(4-Cyano-phenyl)-N-[3,4-dioxo-2-(1,2,2-trimethyl-propylamino)cyclobut-1-enyl]-3-phenyl-acrylamide] reads 370 ± 80 nM; that for `CC(=O)N(c1ccc(C#N)cc1)c1c(NC(C)C(C)(C)C)c(=O)c1=O` (stereo not drawn) [Example 9, N-(4-Cyano-phenyl)-N-[3,4-dioxo-2-(1,2,2-trimethyl-propylamino)-cyclobut-1-enyl]-acetamide], 230 ± 50 nM. For `CC(=O)N(c1ccc(C#N)cc1)c1c(N[C@H](C)C(C)(C)C)c(=O)c1=O` [Example 10, (R)-(-)-N-(4-Cyano-phenyl)-N-[3,4-dioxo-2-(1,2,2-trimethyl-propylamino)-cyclobut-1-enyl]-acetamide], the IC50 is 310 ± 50 nM. On to `CC(=O)N(c1ccc(C#N)cc1)c1c(NC(C)C)c(=O)c1=O` [Example 11, N-(4-Cyano-phenyl)-N-[3,4-dioxo-2-isopropylamino-cyclobut-1-enyl]-acetamide], for which the IC50 is 9700 ± 4100 nM. Consider `CC(=O)N(c1ccc(C#N)cc1)c1c(NC(C)C(C)C)c(=O)c1=O` (stereo not drawn) [Example 13, N-(4-Cyano-phenyl)-N-[2-(1,2-dimethyl-propylamino)-3,4-dioxo-cyclobut-1-enyl]-acetamide], for which the IC50 amounted to 200 ± 100 nM. As to `CC(=O)N(c1cccc(C#N)c1)c1c(NC(C)C(C)(C)C)c(=O)c1=O` (stereo not drawn) [Example 14, N-(3-Cyano-phenyl)-N-[3,4-dioxo-2-(1,2,2-trimethyl-propylamino)-cyclobut-1-enyl]-acetamide], the IC50 amounted to 3200 ± 920 nM.

On to `CCCCNc1c(N(C(C)=O)c2ccc(C#N)cc2)c(=O)c1=O` [Example 16, N-(2-Butylamino-3,4-dioxo-cyclobut-1-enyl)-N-(4-cyano-phenyl)-acetamide], for which the IC50 is 1240 ± 540 nM. The result for `CC(=O)N(c1cccnc1)c1c(N[C@H](C)C(C)(C)C)c(=O)c1=O` [Example 23, (R)-N-[3,4-Dioxo-2-(1,2,2-trimethyl-propylamino)-cyclobut-1-enyl]-N-(pyridin-3-yl)-acetamide] reads 7200 ± 1600 nM; that for `CC(=O)N(c1ccncc1)c1c(N[C@H](C)C(C)(C)C)c(=O)c1=O` [Example 24, (R)-N-[3,4-Dioxo-2-(1,2,2-trimethyl-propylamino)-cyclobut-1-enyl]-N-(pyridin-4-yl)-acetamide], 2500 ± 200 nM.

With `CC(C)CC(=O)N(c1ccncc1)c1c(N[C@H](C)C(C)(C)C)c(=O)c1=O` [Example 25, (R)-N-[3,4-Dioxo-2-(1,2,2-trimethyl-propylamino)-cyclobut-1-enyl]-3-methyl-N-(pyridin-4-yl)-butyramide], the IC50 came to 10800 ± 1600 nM. `CCCCC(=O)N(c1ccncc1)c1c(N[C@H](C)C(C)(C)C)c(=O)c1=O` [Example 26, (R)-(-)-N-(3,4-Dioxo-2-(1,2,2-trimethyl-propylamino)-cyclobut-1-enyl]-N-(pyridin-4-yl)-pentylamide]: the IC50 was 4900 ± 1200 nM. The result for `CCCC(=O)N(c1ccc(C#N)cc1CC)c1c(N[C@H](C)C(C)(C)C)c(=O)c1=O` [Example 27, (R)-(-)-N-(4-Cyano-2-ethyl-phenyl)-N-[3,4-dioxo-2-(1,2,2-trimethyl-propylamino)-cyclobut-1-enyl]-butyramide] reads 170 ± 4 nM; that for `CCC(=O)N(c1ccc(C#N)cc1CC)c1c(N[C@H](C)C(C)(C)C)c(=O)c1=O` [Example 28, (R)-N-(4-Cyano-2-ethyl-phenyl)-N-[3,4-dioxo-2-(1,2,2-trimethyl-propylamino)-cyclobut-1-enyl]-propionamide], 220 ± 200 nM. The result for `C/C=C/C(=O)N(c1ccc(C#N)cc1CC)c1c(N[C@H](C)C(C)(C)C)c(=O)c1=O` [Example 29, (R)-(-)-N-(4-Cyano-2-ethylphenyl)-N-[3,4-dioxo-2-(1,2,2-trimethyl-propylamino)-cyclobut-1-enyl]-crotonamide] reads 270 ± 20 nM; that for `CCc1cc(C#N)ccc1N(C(C)=O)c1c(N[C@H](C)C(C)(C)C)c(=O)c1=O` [Example 30, (R)-(-)-N-(4-Cyano-2-ethyl-phenyl)-N-[3,4-dioxo-2-(1,2,2-trimethyl-propylamino)-cyclobut-1-enyl]-acetamide], 350 ± 100 nM; that for `CCCCC(=O)N(c1ccc(C#N)cc1CC)c1c(N[C@H](C)C(C)(C)C)c(=O)c1=O` [Example 31, (R)-(-)-N-(4-Cyano-2-ethyl-phenyl)-N-[3,4-dioxo-2-(1,2,2-trimethyl-propylamino)-cyclobut-1-enyl]-pentanamide], 610 ± 200 nM. As to `CCc1cc(C#N)ccc1N(C(=O)C1CCCCC1)c1c(N[C@H](C)C(C)(C)C)c(=O)c1=O` [Example 32, (R)-(-)-N-(4-cyano-2-ethyl-phenyl)-N-[3,4-dioxo-2-(1,2,2-trimethyl-propylamino)-cyclobut-1-enyl]-cyclohexanecarboxamide], the IC50 was 630 ± 65 nM. For the compound `CC(=O)N(c1ccc(C#N)c(Cl)c1)c1c(N[C@H](C)C(C)(C)C)c(=O)c1=O` [Example 33, (R)-(-)-N-(3-Chloro-4-cyano-phenyl)-N-[3,4-dioxo-2-(1,2,2-trimethyl-propylamino)-cyclobut-1-enyl]-acetamide], the IC50 worked out at 190 ± 10 nM.
